Test results: paper PMC10238420, “Altered Signaling and Desensitization Responses in PTH1R Mutants Associated with Eiken Syndrome” (Communications Biology, 2023)
Read-outs that look alike come from different tables or passages of the source.

Tests used:
PTH1R-H223R [1] = biological target: T1, PTH1R-H223R (Homo sapiens, UniProt Q03431, H223R); assay: Glosensor cAMP agonist dose-response, Gs22a cells; assay type: cell-based; details: % of maximum response of each ligand on PTH1R-WT; five experiments
PTH1R-Y134S [2] = biological target: T2, PTH1R-Y134S (Homo sapiens, UniProt Q03431, Y134S); assay: Glosensor cAMP agonist dose-response, Gs22a cells; assay type: cell-based; details: % of maximum response of each ligand on PTH1R-WT; five experiments
PTH1R-R485X [3] = biological target: T3, PTH1R-R485X (Homo sapiens, UniProt Q03431); assay: cell-based
PTH1R-E35K [4] = biological target: T4, PTH1R-E35K (Homo sapiens, UniProt Q03431, E35K); assay: Glosensor cAMP agonist dose-response, Gs22a cells; assay type: cell-based; details: % of maximum response of each ligand on PTH1R-WT; five experiments
PTH1R-WT [5] = biological target: T5, PTH1R-WT (Homo sapiens, UniProt Q03431); assay: Glosensor cAMP agonist dose-response, Gs22a cells; assay type: cell-based; details: % of maximum response of each ligand on PTH1R-WT; five experiments
PTH1R-WT [6] = biological target: T5, PTH1R-WT; assay: cAMP time course with ligand and after ligand washout (duration), Gs22a cells; assay type: cell-based; details: 1 nM, 90 min washout; all PTH1R variants
Procedure: Data are means (±SEM) of five (a), four (b, c, e) or three (d) separate experiments.
(§8) Fig. 7 Effects of Eiken mutation on duration of cAMP signaling and desensitization to ligand re-challenge. a Assays were performed in Gs22a cells transiently transfected to express PTH1R-WT or a mutant PTH1R. a Duration of initial cAMP signaling response. […] Response to Ligand rechallenge. After the washout-periods shown in panel a, the cells were rechallenged with the same ligand (1.0 nM) for 60 min and cAMP accumulation was assessed. […] P values indicate comparison by Student’s t test to pre-vehicle treatment: Data are means ± SEM from four separate experiments each in duplicate (b) or quadruplicate (a).
Basal and ligand-stimulated cAMP signaling was assessed via the glosensor cAMP reporter in Gs22a cells transiently transfected to express either the WT or a mutant hPTH1R in white 96-well plates at room temperature. […] The plate was then placed into a PerkinElmer Envision plate reader and luminescence, as counts per second (cps), was measured at 2-min intervals for 15 min, during which time luciferin uptake occurred and luminescence reached a near steady-state baseline level. The plate was then removed from the plate reader, CIDB alone (vehicle) or containing a test ligand at varying concentrations was added, and luminescence was again measured at 2 min intervals for an additional 30–60 min. […]

PTH1R-R485X [7] = details: 1 nM; vs vehicle-pre-treated cells
Procedure: as §8
The cells were then rinsed twice with CIDB and incubated in CIDB for 90 min (washout phase); then rinsed again and incubated in CIDB/luciferin for an additional 10 min, and then treated with vehicle or rechallenged with the same ligand (1.0 nM) and incubations continued for a final 60-min (ligand re-challenge phase); luminescence was monitored at 2 min-intervals during each phase of incubation.

PTH1R-R485X [8] = biological target: T3, PTH1R-R485X; assay type: binding; details: % of maximum SB at PTHR1-WT; four experiments
Procedure: Bar heights indicate the means ± SEM of three individual experiments represented by the data points. […] Data are means (±SEM) of three (a) or four experiments.
(§9) Binding was assessed on confluent monolayers of transiently transfected intact Gs22a cells in 96-well plates. Binding reactions contained HB and 20,000–30,000 cpm/well of radioligand. […] The mixtures were then removed and the cells were rinsed twice with HB and lysed with 5 N NaOH and the lysates were counted for gamma irradiation in a gamma counter. […] After incubation for 2 h at 4 °C, the mixtures were removed, the cells were rinsed twice with HB, lysed with 5N NaOH, and the lysates were counted for gamma irradiation.
The fit values of max i mum SB, as r adi oac t i v e c ount s per mi nut e (cpm), with non-specif ic binding (1, 529±418

PTH1R-WT [9] = biological target: T5, PTH1R-WT; assay: Competition binding vs 125I-LA-PTH*, intact Gs22a cells; details: % of maximum SB at PTHR1-WT; four experiments
Source text: (§1) Supplemental Table 4. Competition Binding Data.
(§2) Ligand-binding properties of PTH1R variants
(§3) Suppl ement al Tabl e 4. Radi ol i gand Bi n d i n g Dat a. […]
(§4) as compet i t or. […] The fit values of […]
(§5) Dat a ar e means (±SEM) of f our exper i ment s; p val ues ar e St udent ’s T t est compar i sons t o

PTH1R-E35K [10] = biological target: T4, PTH1R-E35K; assay: as above; details: four experiments
Source text: as §1, §2, §3, §4, §5

PTH1R-Y134S [11] = biological target: T2, PTH1R-Y134S; assay: as above; details: % of maximum SB at PTHR1-WT; four experiments
Source text: as §1, §2, §3, §4, §5

PTH1R-H223R [12] = biological target: T1, PTH1R-H223R; assay: as above; details: % of maximum SB at PTHR1-WT; four experiments
Source text: as §1, §2, §3, §4, §5

PTH1R-E35K [13] = biological target: T4, PTH1R-E35K; assay: Total binding of 125I-PTHrP(1-36), intact Gs22a cells
Procedure: as §9

PTH1R-Y134S [14] = biological target: T2, PTH1R-Y134S; assay: as above
Procedure: as §9

PTH1R-R485X [15] = test system: PTH1R-R485X
Procedure: as §9

PTH1R-H223R [16] = biological target: T1, PTH1R-H223R; assay: Total binding of 125I-PTHrP(1-36), intact Gs22a cells
Procedure: as §9

PTH1R-WT [17] = biological target: T5, PTH1R-WT; assay: Fluorescence microscopy of ligand internalization and β-arrestin2YFP recruitment, GBR-24 cells, ImageJ; assay type: cell-based; details: 30 nM TMR ligand (unlabeled: 10 nM), 30 min
Source text: (§6) Images are representative of three independent experiments.
(§7) Scale bars in a and c indicate 10 μm.

PTH1R-E35K [18] = biological target: T4, PTH1R-E35K; assay: as above; assay type: cell-based; details: 30 nM TMR ligand (unlabeled: 10 nM), 30 min
Source text: as §6, §7

PTH1R-Y134S [19] = biological target: T2, PTH1R-Y134S; assay: as above; assay type: cell-based; details: 30 nM TMR ligand (unlabeled: 10 nM), 30 min
Source text: as §6, §7

PTH1R-R485X [20] = details: 30 nM TMR ligand (unlabeled: 10 nM), 30 min
Procedure: as §6
Data are representative of three independent experiments (a-d); or means ± SEM of three or four independent experiments (e, f). Bar heights in graphs of panels b and d indicate the means ± SEM of counts from the five cells shown by the individual data points. Scale bars in a and c indicate 10 μm.
Ligand-induced recruitment of β-arrestin2^YFP was assessed in GBR-24 cells, which are HEK293/glosensor (Gs22A)-derived cells stably expressing β-arrestin2^YFP [42]. The cells in six-well plates were transiently transfected with plasmid DNA encoding PTH1R-WT or mutant derivative, and 24 hours later seeded onto glass coverslips in 6-well plates. […] In some experiments, the cells were imaged by confocal microscopy using a Leica DMi8 inverted Microscope at ×400 magnification, and the images were processed using Leica Application Suite X (LAS X) software. Regions of interest were digitally expanded 3-5X to improve views.
Quantification of β-arrestin2^YFP clusters was performed using ImageJ software (vers. 1.53)[67]. The color images were converted to 8 bit and then 16 bit gray-scale, and the threshold was adjusted on a cell-by-cell basis to show distinct particles (interpreted as clusters of β-arrestin2^YFP in intracellular vesicles); threshold values ranged from ~ 20-60. The free-hand tool was used to define the area analyzed for each cell, and the Analyze Particle tool was used to obtain the number of particles, the total area, and the mean gray scale (intensity) of each particle for each cell.

CC[C@H](C)[C@H](NC(=O)[C@H](CCC(=O)O)NC(=O)[C@H](CO)NC(=O)[C@@H](NC(=O)[C@@H](N)CO)C(C)C)C(=O)N[C@@H](CCC(N)=O)C(=O)N[C@@H](CC(C)C)C(=O)N[C@@H](CCSC)C(=O)N[C@@H](Cc1c[nH]cn1)C(=O)N[C@@H](CC(N)=O)C(=O)N[C@@H](CC(C)C)C(=O)NCC(=O)N[C@@H](CCCCN)C(=O)N[C@@H](Cc1c[nH]cn1)C(=O)N[C@@H](CC(C)C)C(=O)N[C@@H](CC(N)=O)C(=O)N[C@@H](CO)C(=O)N[C@@H](CCSC)C(=O)N[C@@H](CCC(=O)O)C(=O)N[C@@H](CCCNC(=N)N)C(=O)N[C@H](C(=O)N[C@@H](CCC(=O)O)C(=O)N[C@@H](Cc1c[nH]c2ccccc12)C(=O)N[C@@H](CC(C)C)C(=O)N[C@@H](CCCNC(=N)N)C(=O)N[C@@H](CCCCN)C(=O)N[C@@H](CCCCN)C(=O)N[C@@H](CC(C)C)C(=O)N[C@@H](CCC(N)=O)C(=O)N[C@@H](CC(=O)O)C(=O)N[C@H](C(=O)N[C@@H](Cc1c[nH]cn1)C(=O)N[C@@H](CC(N)=O)C(=O)N[C@@H](Cc1ccccc1)C(N)=O)C(C)C)C(C)C [PTH(1-34)]
Emax (PTH1R-H223R [1]): 48 ± 6% | Emax (PTH1R-Y134S [2]): 96 ± 4% | Emax (PTH1R-R485X [3]; read-out: Emax of that attained on PTH1R-WT): ~80% | Emax (PTH1R-R485X [3]; read-out: cAMP Emax): 81 ± 10% | Emax (PTH1R-E35K [4]): 106 ± 5% | Emax (PTH1R-WT [5]): 100%

AVAEIQL MH QR AKWIQD AR R R AFL H KL IAEIH TAEI.OH [LA-PTH]
residual cAMP signaling at end of washout, in words (PTH1R-WT [6]): elevated for all PTH1R variants | response upon ligand rechallenge, in words (PTH1R-R485X [7]): significantly blunted

AVAEIQLnLHQRAKWIQDARRRAFLHKLIAEIHTAEY.NH2 [125I-LA-PTH*, radioligand prepared by chloramine T oxidation with 125I-Na]
maximum specific binding (SB) of radioligand (PTH1R-R485X [8]): 107 ± 14% | maximum specific binding (SB) of radioligand (PTH1R-WT [9]): 100 ± 0% | maximum specific binding (SB) of radioligand (PTH1R-E35K [10]; % of maximum SB at PTHR1-WT): 89 ± 11% | fit maximum SB of radioligand (PTH1R-E35K [10]; non-specific binding subtracted): 5,179±936 cpm | maximum specific binding (SB) of radioligand (PTH1R-Y134S [11]): 93 ± 14% | maximum specific binding (SB) of radioligand (PTH1R-H223R [12]): 114 ± 22%

AVSEH QL L H D KGKSIQD L R R R FFL H H L IAEIH TAEY.N H 2 [125I-PTHrP(1-36), radioligand prepared by chloramine T oxidation with 125I-Na]
reduction of total binding vs PTH1R-WT (PTH1R-E35K [13]): ~ 50% | reduction of total binding vs PTH1R-WT (PTH1R-Y134S [14]): ~ 50% | total binding vs PTH1R-WT, in words (PTH1R-R485X [15]): comparable to that on PTH1R-WT | total binding vs PTH1R-WT, in words (PTH1R-H223R [16]): comparable to that on PTH1R-WT

AVSEH QL L H D KGrKSIQD L R R R FFL H H L IAEIH TAEI.N H 2 [PTHrP(1-36)^TMR]
co-clustering of β-arrestin2YFP with ligand in endosomes, in words (PTH1R-WT [17]): robust co-clustering of the ligand in endosomes with β-arrestin2^YFP | co-clustering of β-arrestin2YFP with ligand in endosomes, in words (PTH1R-E35K [18]): no co-clustering with β-arrestin2^YFP | co-clustering of β-arrestin2YFP with ligand in endosomes, in words (PTH1R-Y134S [19]): no co-clustering with β-arrestin2^YFP | co-clustering of β-arrestin2YFP with ligand in endosomes, in words (PTH1R-R485X [20]): no co-clustering with β-arrestin2^YFP
